Columns and labels:
[1] = target: T1, 5-hydroxytryptamine receptor 6 (Homo sapiens, UniProt P50406); test: Displacement of [3H]LSD from human 5HT6 receptor expressed in HeLa cells; format: cell-based
[2] = target: T1, 5-hydroxytryptamine receptor 6; test: Agonist activity at human 5HT6 receptor expressed in HeLa cells assessed as cAMP production; format: functional, cell-based

T1 sequence (P50406 whole entry): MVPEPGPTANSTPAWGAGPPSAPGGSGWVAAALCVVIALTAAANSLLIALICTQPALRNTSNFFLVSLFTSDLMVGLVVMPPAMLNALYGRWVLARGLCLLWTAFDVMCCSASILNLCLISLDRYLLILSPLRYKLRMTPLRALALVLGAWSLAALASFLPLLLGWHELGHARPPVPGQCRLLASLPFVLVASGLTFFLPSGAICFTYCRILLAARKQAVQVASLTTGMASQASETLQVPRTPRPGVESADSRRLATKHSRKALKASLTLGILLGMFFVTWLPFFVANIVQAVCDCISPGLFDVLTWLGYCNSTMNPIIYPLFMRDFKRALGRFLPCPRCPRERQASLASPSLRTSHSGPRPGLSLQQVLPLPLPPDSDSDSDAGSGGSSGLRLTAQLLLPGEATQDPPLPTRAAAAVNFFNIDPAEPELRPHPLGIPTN

| SMILES | Ki [1] | EC50 [2] | Emax [2] |
| --- | --- | --- | --- |
| NCCc1cn(S(=O)(=O)c2ccccc2I)c2ccccc12 | 16 nM | – | – |
| NCCc1cn(S(=O)(=O)c2cccc(Cl)c2)c2ccccc12 | 6 nM | 108 nM | 100% |
| NCCc1cn(S(=O)(=O)c2ccc(I)cc2)c2ccccc12 | 14 nM | – | – |
| NCCc1cn(S(=O)(=O)c2ccc(Cl)cc2)c2ccccc12 | 10 nM | 174 nM | 93.5% |
| NCCc1cn(S(=O)(=O)c2ccccc2)c2ccccc12 | 10 nM | 73 nM | 92% |
